Measurements: patent EP4385508A1, “FURAN FATTY ACIDS FOR ENHANCING MUSCLE MASS” (Centre de Coopération Internationale en Recherche …, priority 2022, dated 2024)

Experiments:
ULK1 = ULK1 phosphorylation and total level by Western blot in C2C12 myotubes; type: cell-based, Mouse; conditions: highest dose (50 µM)
Description: (§1) Mouse myoblasts of the C2C12 cell line (ATCC) were seeded at a plating density of 7000 cells/cm2 in 6-well plates. They were grown in DMEM high glucose (4.5g/l) supplemented with gentamycin (50 µg/mL), amphotericin (50 µg/mL), and fetal calf serum (10%). Terminal differentiation was induced at cell confluence by lowering the medium serum concentration (0.5%).
(§2) When indicated, FuFA-F2 was added to the culture medium at the indicated concentration. For the differentiation studies, FuFA-F2 was added at the confluence at the same time as the change in media condition. Three doses of FuFA-F2 were studied at a final concentration of 1, 10, or 50 µM. Human insulin was used at a concentration of 100 nM.
Protein levels were assessed by Western blotting. Total proteins were measured using the Bio-Rad protein assay (Hercules, CA, USA) according to the manufacturer's instructions. […]
AMP activated protein kinase (AMPK) is a crucial cellular energy sensor protein and is activated when intracellular ATP level decreases to regulate autophagy initiation (Hardie et al., 2012, Nat Rev Mol Cell Bio, Vol. 13 (4) : 251-262). […] The autophagy-related signaling was further evaluated by measuring the MTORC1 mediated phosphorylation […] at Ser757 which disrupts the interaction between ULK1 and AMPK. […] Therefore, the autophagic flux was assessed by measuring the conversion of LC3-I to LC3-II, through lipidation.

[1] = tested on: myosin heavy chain (MyHC); experiment: Slow and fast MyHC protein levels by Western blot in C2C12 myotubes; type: cell-based, Mouse
Description: as §1, §2
Protein levels were assessed by Western blotting. Total proteins were measured using the Bio-Rad protein assay (Hercules, CA, USA) according to the manufacturer's instructions. Total proteins were lysed in RIPA buffer (20mM Tris, 150mM NaCl, 1mM EDTA, 1% NP40, pH 7.5 + complete cocktail protease inhibitors + Pierce phosphatase inhibitors tablet). 40 µg of cell extracts were loaded and blotted onto a nitrocellulose membrane. The membranes were washed, blocked with 5% nonfat milk and incubated in primary antibody overnight at 4°C. […]
(Figure 5A), commonly used as a quantitative marker of intact mitochondria. […]

Citrate synthase (CS) = experiment: Citrate synthase activity in quadriceps of supplemented C57Bl6 mice; type: in vivo; conditions: 20mg/kg oral gavage
Description: Male C57Bl/6J wild-type mice were obtained from Janvier at 12 weeks of age and were randomly assigned to one of the two groups based on body weight. Mice were housed 2 per cage and maintained on a 12-hour light/dark cycle (lights on at 7:30 pm). Food and water were provided ad libitum. Enrichment (nesting cotton squares) was provided in each cage. Mice were treated once daily by oral gavage with vehicle (50% PEG-400, 0.5% Tween 80, and 49.5% distilled water) or FuFA-F2 (20 mg/kg). All animal experiments were performed according to European directives (86/609/CEE and 2010/63/CEE) and approved by the regional animal experimentation ethics committe: Région Languedoc-Roussillon (No36). […]
Mitochondrial respiratory complex activities were determined as previously described (Casas et al., 2008, PloS ONE, Vol. 3(6) : e2501). Citrate synthase (CS) activity was measured according to Srere (Srere et al., 1967, Science, Vol. 158(3803) : 936-937) by following the color formation of 5-thio-2-nitrobenzoic acid at 412 nm. The enzymatic activity of complex IV (cytochrome c oxidase) was measured according to Wharton and Tzagoloff (Wharton et al., 1967, Methods in Enzymology, Vol. 10, Edn Elsevier BV, Amsterdam, The Netherlands), a spectrophotometer following the oxidation of reduced cytochrome c at 550 nm, pH 7.4, and 37 °C. […]

Compound: CCCCCc1cc(C)c(CCCCCCCCC(=O)O)o1 [FuFA-F2]
- ULK1 phosphorylation at Ser757 (ULK1): decreased
- total Ulk level (ULK1): also decreased
- expression of slow MyHC ([1]; 10 µM): significantly increased
- fast MyHC ([1]; highest dose (50 µM)): decrease
- Citrate synthase (CS) (Citrate synthase (CS)): not modified
